Assay results: patent publication EP0532716B1, “NEW […] WITH IMUNOMODULATING ACTIVITY AND PREPARATION THEREOF” (INSTITUTO […] T[…] NAVARRA, S.A., priority 1990, dated 1992)
Ends that are not written are not given here.

Assays:
Assay type in all cases: cell-based
[1] = test system: Daudi target cells; test: 51Cr release assay: cytotoxic activity of peptide-activated lymphomononuclear cells against Daudi target cells; conditions: lymphomononuclear cells from three healthy donors, cultured 4 days with 20 micrograms of peptide; Mean ± Standard error
Description: (§1) Generation of cells with cytotoxic activity towards NK sensitive and NK resistant target cells.
(§2) Peripheral blood mononuclear cells from healthy donors were obtained by leukapheresis, processing 5 to 10 liters of whole blood, using a Fenwall CS-3000 continuous-flow cell separator (Fenwall Laboratories, Deerfield, Illinois, USA). Vascular access was obtained with a double lumen central venous catheter.
(§3) Separated lymphomononuclear cells are washed, counted and resuspended at a concentration of 2x10^6 per ml in RPMI-1640 medium containing 10 units of penicillin per ml, 200 µg of gentamycin per ml, 2mM of glutamine per ml and 2,5% of autologous serum in a PL-732 culture bag (Fenwall Laboratories, Deerfield, Illinois, USA).
(§4) The incubation medium contained 20 micrograms of the peptide being studied. • Peptide 1 (Peptide of Example 1). • Peptide 2 (Peptide of Example 2). • Peptide 3 (Peptide of Example 3). • Peptide 4 (Peptide of Example 4). […]. In this pentadecapeptide Proline is absent. This control peptide has in common with the peptides object the invention only aa11=Asp).
(§5) The cells are cultured for 4 days in a moist-air incubator at 37^ºC, 5% CO2 and 21% O2, One ml sample is drawn daily for microbiological studies.
(§6) Changes in the cytotoxic ability of lymphomononuclear cells before and after peptide activation are measured with the ^51Cr release assay, using K562 and Daudi target cells (Table I). Phenotypic changes of lymphomononuclear cells before and after peptide activation are also assessed with fluorescein labeled […] antibodies and automated flow cytometry (Table II). It is well known that lymphomononuclear cells are very heterogeneous, but the presence of surface markers (CD) allows the description of their phenotypes (Weissman IL, Fathman CG, J Exp Med (1973) 137:504; Small M, Herzenberg CA, Weissman IL, Cell Immunol (1975) 15:109).

[2] = test system: K562 target cells; test: 51Cr release assay: cytotoxic activity of peptide-activated lymphomononuclear cells against K562 target cells; conditions: lymphomononuclear cells from three healthy donors, cultured 4 days with 20 micrograms of peptide; Mean ± Standard error
Description: as §1, §2, §3, §4, §5, §6

[3] = test system: lymphomononuclear cells; test: Phenotypes of lymphomononuclear cells after peptide activation (fluorescein labeled antibodies, automated flow cytometry); conditions: 20 micrograms of peptide, 4 days, three healthy donors, Mean ± Standard error
Procedure: as §2, §3
The incubation medium contained 20 micrograms of the peptide being studied. • Peptide 1 (Peptide of Example 1). • Peptide 2 (Peptide of Example 2). • Peptide 3 (Peptide of Example 3). • Peptide 4 (Peptide of Example 4). Control Peptide (Ala-Asp-Ala-Gln-Gln-Asn-Lys-Phe-Asn-Lys-Asp-Gln-Gln-Ser-Val. In this pentadecapeptide Proline is absent. This control peptide has in common with the peptides object the invention only aa11=Asp).
as §5, §6

## CC(C)[C@H](NC(=O)[C@H](CO)NC(=O)[C@H](CCC(N)=O)NC(=O)[C@H](CCC(N)=O)NC(=O)[C@H](CC(=O)O)NC(=O)[C@H](CCCCN)NC(=O)[C@H](CC(N)=O)NC(=O)[C@H](Cc1ccccc1)NC(=O)[C@H](CCCCN)NC(=O)[C@H](CC(N)=O)NC(=O)[C@H](CCC(N)=O)NC(=O)[C@H](CCC(N)=O)NC(=O)[C@H](C)NC(=O)[C@H](CC(=O)O)NC(=O)[C@H](C)N)C(=O)O [Control Peptide, Ala-Asp-Ala-Gln-Gln-Asn-Lys-Phe-Asn-Lys-Asp-Gln-Gln-Ser-Val, reference compound]
[1]
  CYTOTOXIC ACTIVITY (%) DAUDI: 10 ± 4%
[2]
  CYTOTOXIC ACTIVITY (%) K562: 12 ± 8%

## CC[C@H](C)[C@H](NC(=O)[C@H](CCC(=O)O)NC(=O)[C@H](CCCCN)NC(=O)[C@H](CO)NC(=O)[C@@H](NC(=O)[C@H](CO)NC(=O)[C@@H]1CCCN1C(=O)[C@H](CC(=O)O)NC(=O)[C@H](CC(=O)O)NC(=O)[C@H](CCCCN)NC(=O)[C@H](CC(C)C)NC(=O)[C@@H](N)CO)C(C)C)C(=O)N[C@@H](CC(C)C)C(=O)N[C@@H](C)C(=O)N[C@H](C(=O)O)C(C)C [Peptide 2]
[1]
  CYTOTOXIC ACTIVITY (%) DAUDI: 62 ± 8%
[2]
  CYTOTOXIC ACTIVITY (%) K562: 62 ± 7%
[3]
  CELLS EXPRESSING SURFACE MARKERS (%) CD3: 58 ± 2%
  CELLS EXPRESSING SURFACE MARKERS (%) CD8: 18 ± 2%
  CELLS EXPRESSING SURFACE MARKERS (%) CD11b: 24 ± 3%
  CELLS EXPRESSING SURFACE MARKERS (%) CD14: 18 ± 3%
  CELLS EXPRESSING SURFACE MARKERS (%) CD16: 22 ± 6%
  CELLS EXPRESSING SURFACE MARKERS (%) CD56: 17 ± 5%

## CC[C@H](C)[C@H](NC(=O)[C@H](CCC(=O)O)NC(=O)[C@H](CCCCN)NC(=O)[C@H](CO)NC(=O)[C@@H](NC(=O)[C@H](CO)NC(=O)[C@@H]1CCCN1C(=O)[C@H](CC(=O)O)NC(=O)[C@H](CC(=O)O)NC(=O)[C@H](CCCCN)NC(=O)[C@H](CC(C)C)NC(=O)[C@H](CO)NC(=O)[C@H](CCC(N)=O)NC(=O)[C@@H](NC(=O)[C@H](Cc1ccccc1)NC(=O)CNC(=O)[C@@H](N)CC(N)=O)[C@@H](C)CC)C(C)C)C(=O)N[C@@H](CC(C)C)C(=O)N[C@@H](C)C(=O)N[C@@H](CCC(=O)O)C(=O)N[C@@H](C)C(=O)N[C@@H](CCCCN)C(=O)N[C@H](C(=O)O)C(C)C [Peptide 4]
[1]
  CYTOTOXIC ACTIVITY (%) DAUDI: 56 ± 6%
[2]
  CYTOTOXIC ACTIVITY (%) K562: 58 ± 7%

## EILNMPNLNEEQRNV [Peptide 3]
[1]
  CYTOTOXIC ACTIVITY (%) DAUDI: 58 ± 9%
[2]
  CYTOTOXIC ACTIVITY (%) K562: 59 ± 9%
[3]
  CELLS EXPRESSING SURFACE MARKERS (%) CD3: 59 ± 3%
  CELLS EXPRESSING SURFACE MARKERS (%) CD8: 17 ± 2%
  CELLS EXPRESSING SURFACE MARKERS (%) CD11b: 23 ± 4%
  CELLS EXPRESSING SURFACE MARKERS (%) CD14: 18 ± 3%
  CELLS EXPRESSING SURFACE MARKERS (%) CD16: 21 ± 5%
  CELLS EXPRESSING SURFACE MARKERS (%) CD56: 18 ± 5%

## NVLGAPKKLNESQAV [Peptide 1]
[1]
  CYTOTOXIC ACTIVITY (%) DAUDI: 68 ± 6%
[2]
  CYTOTOXIC ACTIVITY (%) K562: 63 ± 8%
[3]
  CELLS EXPRESSING SURFACE MARKERS (%) CD3: 60 ± 1%
  CELLS EXPRESSING SURFACE MARKERS (%) CD8: 17 ± 1%
  CELLS EXPRESSING SURFACE MARKERS (%) CD11b: 23 ± 5%
  CELLS EXPRESSING SURFACE MARKERS (%) CD14: 17 ± 4%
  CELLS EXPRESSING SURFACE MARKERS (%) CD16: 22 ± 7%
  CELLS EXPRESSING SURFACE MARKERS (%) CD56: 18 ± 6%
